Values quoted from earlier work as cited in patent US7324926B2, “Methods for predicting chemosensitivity or chemoresistance” (Whitehead Institute for Biomedical Research, priority 1999, dated 2008).

Assays:
[1] = tested on: central nervous system (CNS) cell lines; details: CNS cell lines of the NCI-60 panel; sensitive = log10(GI50) at least 0.8 SD below the mean
[2] = tested on: ovarian cancer cell lines; details: ovarian cancer cell lines of the NCI-60 panel; resistant = log10(GI50) at least 0.8 SD above the mean

In the case of `C=C1[C@@H](C)[C@H]2[C@H](Cc3ccccc3)NC(=O)[C@]23[C@H](OC(C)=O)/C=C/[C@@](C)(O)C(=O)[C@@H](C)C/C=C/[C@H]3[C@@H]1O` [cytochalasin D, Cytochalasin D], the “cytochalasin D sensitivity class of cell lines (from GI50)” value [1] is given as “sensitive” and the “cytochalasin D sensitivity class of cell lines (from GI50)” value [2] is given as “resistant”.
